For one compound, MIC, mortality and Symptoms results are on record in patent US5525627A, “Esters of acyl carnitines with long-chain aliphatic alcohols and pharmaceutical compositions containing same having antimycotic activity” (Sigma-Tau Industrie Farmaceutiche Riunite S.p.A., priority 1992, dated 1996).

One series deals with yeast-like fungi. Nature of the series: MIC / MFC for yeast-like fungi, all strains. Type of series: cell-based, Candida, Cryptococcus, Saccharomyces, Torulopsis. The following applies: versus susceptible strains; read-out: Mean MIC values. In short, it runs like this:
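Candida, Cryptococcus, Saccharomyces and Torulopsis strains tested by broth microdilution in Yeast Nitrogen Base with 0.15% asparagine and 1.0% glucose, buffered with 0.165 M MOPS; final inoculum about 5.0×10^4 CFU/ml from overnight (Cryptococcus 48-hour) Sabouraud cultures. MFC from spot-transfer of wells without visible growth onto Sabouraud agar.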

The subject of the next series is filamentous fungi. Nature of the series: MIC / MFC for filamentous fungi, all strains. Type of series: cell-based, Aspergillus, Fusarium, Mucor, Penicillium. The following applies: versus susceptible strains; read-out: Mean MIC values. In outline: (§1)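 Conidia from 72-hour Sabouraud agar cultures were collected by washing with Sabouraud medium containing Tween 80. They were then inoculated at 5.0×10^4 CFU/ml, and the run and MIC/MFC readings followed the yeast-like fungi procedure.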

Series [1] concerns Candida albicans (ATCC 2091). Nature of the series: MIC for yeast and yeast-like strains. Type of series: cell-based. The following applies: ATCC2091, 48 hours, 35° C., read-out: Minimal Inhibitory Concentration (MIC). In short, it runs like this: (§2)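 In vitro antimycotic assay: inocula were prepared from Sabouraud broth cultures (overnight, or 48-hour for Cryptococcus) and tested at ~5.0×10^4 CFU/ml final in MOPS-buffered Yeast Nitrogen Base with asparagine and glucose.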

The subject of series [2] is Candida pseudotropicalis (EC 1). Briefly: MIC for yeast and yeast-like strains. The following applies: Kluyveromyces marxianus; 48 hours, 35° C.; read-out: Minimal Inhibitory Concentration (MIC). The series is classed as cell-based. In short, it runs like this:
as §2

Series [3] relates to Torulopsis candida (D.S.). Briefly: MIC for yeast and yeast-like strains. The following applies: Suzukiozyma candida; 48 hours, 35° C.; read-out: Minimal Inhibitory Concentration (MIC). The series is classed as cell-based. In outline:
as §2

In series [4] the test system is Cryptococcus neoformans (4711). Briefly: MIC for yeast and yeast-like strains. The series is classed as cell-based. The following applies: 48 hours, 35° C., read-out: Minimal Inhibitory Concentration (MIC). In short, it runs like this: as §2
Series [5] relates to Saccharomyces cerevisiae (ATCC 7752). Briefly: MIC for yeast and yeast-like strains. The following applies: ATCC7752, 48 hours, 35° C., read-out: Minimal Inhibitory Concentration (MIC). The series is classed as cell-based. In short, it runs like this: as §2
In another series the test system is Candida albicans (Ca 2). Nature of the series: MIC for yeast and yeast-like strains. The series is classed as cell-based. The following applies: 48 hours, 35° C., read-out: Minimal Inhibitory Concentration (MIC). In outline: as §2
Series [6] concerns Candida tropicalis (5705). Nature of the series: MIC for yeast and yeast-like strains. Type of series: cell-based. The following applies: 48 hours, 35° C., read-out: Minimal Inhibitory Concentration (MIC). In outline: as §2
For the next series, the system named is Candida albicans (A 54). Nature of the series: MIC for yeast and yeast-like strains. Type of series: cell-based. The following applies: 48 hours, 35° C., read-out: Minimal Inhibitory Concentration (MIC). In short, it runs like this: as §2
A further series has as its system Candida albicans (562). Briefly: MIC for yeast and yeast-like strains. The following applies: 48 hours, 35° C., read-out: Minimal Inhibitory Concentration (MIC). Type of series: cell-based. In outline:
as §2

Series [7] can be described thus: Assessment of behaviour and mortality in mice (Irwin's method). The arrangement: species or system mice (male Crl:(CD-1)(ICR)BR). The following applies: mouse, in vivo; oral, dose 1000 (unit inferred), 4 animals/dose. As for the experimental part: (§3) ASSESSMENT OF BEHAVIOUR AND MORTALITY IN MICE
(§4) The assessment of normal behaviour in mice was carried out following S. Irwin's method (Psychopharmacologia, 13, 222 [1968]). This method allows alterations in some behavioural, neurophysiologic and neurovegetative parameters to be detected, which are directly observable by the researcher. The study was conducted using male Crl:(CD-1)(ICR)BR mice (Charles River-Italy) weighing 22-25 g. following oral administration of the compounds suspended in carboxymethylcellulose (0.5% by weight in H2 O) to groups of 4 animals/dose.
(§5) The animals were continously kept under observation for five hours following treatment and twice a day in the subsequent five days. Mortality was also observed during the overall test period.

The next series deals with mice. The series is described as above. Also noted: species or system mice (male Crl:(CD-1)(ICR)BR). The following applies: mouse, in vivo, po. The method, then: as §3, §4, §5
Another series has as its system Candida albicans (PG). Briefly: MIC and MFC for yeast and yeast-like strains. Type of series: cell-based. The following applies: 48 hours, 35° C., read-out: Minimal Inhibitory Concentration (MIC). As for the experimental part: The following strains were used (the number of strains is in brackets): Candida (13); Criptococcus (2); Saccharormyces (1); Torulopsis (1).
Yeast Nitrogen Base supplemented with 0.15% asparagine and 1.0% glucose (as carbon source) was the medium utilized in the assays.
This medium was buffered with 0.165 M 2-(N-morpholino) propane sulfonic acid (MOPS), a non-chelating buffer.
Antimicrob. Agents Cheroother. Aug. 34.8:1542-1545).
The inoculum was prepared from an overnight broth culture (a 48-hour culture only for Cryptococcus) in Sabouraud broth and appropriately diluted to yield a final suspension containing approximately 5.0×10^6 Colony Forming Units per ml (CFU/ml), when compared to the Mc Farland's standard control (BRAY W. E., Clinical Laboratory Methods, 5th Ed. C. V. MOSBY, St. Louis, Mo, 1957).
After further diluting (1:50), a […] volume of such fungal suspensions and an equal volume of the substance solutions were distributed into each well of a microtiter plate (96 wells, round bottom). Such a procedure eventually allowed for an "in vitro" antimycotic activity assay utilizing final fungal inocula of approximately 5.0×10^4 CFU/ml.
The minimal fungicidal concentration was evaluated by spot-transferring onto Petri dishes, containing Sabouraud agar, 0.01-ml volumes of all the samples showing no visible fungal growth.

The subject of series [8] is Aspergillus fumigatus (ATCC 28212). Nature of the series: MIC for filamentous fungi. Type of series: cell-based. The following applies: ATCC28212, read-out: Minimal Inhibitory Concentration (MIC). In outline:
as §1

For series [9], the system named is Aspergillus fumigatus (C/1). Briefly: MIC for filamentous fungi. Type of series: cell-based. The following applies: read-out: Minimal Inhibitory Concentration (MIC). In outline:
as §1

In series [10] the test system is Aspergillus fumigatus (1/A). Nature of the series: MIC for filamentous fungi. The series is classed as cell-based. The following applies: read-out: Minimal Inhibitory Concentration (MIC). In short, it runs like this: as §1
For series [11], the system named is Aspergillus fumigatus (2/A). Briefly: MIC for filamentous fungi. Type of series: cell-based. The following applies: read-out: Minimal Inhibitory Concentration (MIC). In short, it runs like this: as §1
In series [12] the test system is Aspergillus niger (ATCC 16404). Briefly: MIC for filamentous fungi. The series is classed as cell-based. The following applies: ATCC16404, read-out: Minimal Inhibitory Concentration (MIC). In short, it runs like this: as §1
For the next series, the system named is Mucor mucedo (ATCC 7941). Briefly: MIC for filamentous fungi. The following applies: ATCC7941, read-out: Minimal Inhibitory Concentration (MIC). The series is classed as cell-based. In outline: as §1

For orientation: mortality means the percentage killed. A low value points to a weak lethal effect.

On to `CCCCCCCCCCCOC(=O)C[C@H](C[N+](C)(C)C)OC(=O)C(C)C` [ST 712, ISOBUTYRYL-L-CARNITINE UNDECYL ESTER CHLORIDE], for which the MIC is 9.37 µg/mL in the series on yeast-like fungi; 30 µg/mL in the series with filamentous fungi; 12.5 µg/mL in series [1]; 12.5 µg/mL in [2]; 12.5 µg/mL in series [3]; 3.12 µg/mL in [4]. In addition, the MIC in [5] is 6.25 µg/mL; in the series with Candida albicans (Ca 2) it was 6.25 µg/mL; in series [6], 3.12 µg/mL; with Candida albicans (A 54), 12.5 µg/mL; with Candida albicans (562), 12.5 µg/mL; with Candida albicans (PG), 12.5 µg/mL. Also, the MIC in [8] came out at 25 µg/mL; in [9] it was 25 µg/mL; in series [10], 25 µg/mL; in [11], 25 µg/mL; in series [12], 50 µg/mL; in the series on Mucor mucedo (ATCC 7941), 50 µg/mL. Besides, in series [7], the mortality at 120 h is 0%. In the series with mice, the Symptoms result is on record as “NONE”.
